The structures appear in SMILES notation.

For the assay, the target named is T1, PAR4 (Homo sapiens, UniProt Q96RI0).
T1 construct: expressed in transfected cells; host or cells: HEK293 PAR4 Clone 1.2A (BMS Arctic ID 383940)
T1 sequence (Q96RI0 18-385): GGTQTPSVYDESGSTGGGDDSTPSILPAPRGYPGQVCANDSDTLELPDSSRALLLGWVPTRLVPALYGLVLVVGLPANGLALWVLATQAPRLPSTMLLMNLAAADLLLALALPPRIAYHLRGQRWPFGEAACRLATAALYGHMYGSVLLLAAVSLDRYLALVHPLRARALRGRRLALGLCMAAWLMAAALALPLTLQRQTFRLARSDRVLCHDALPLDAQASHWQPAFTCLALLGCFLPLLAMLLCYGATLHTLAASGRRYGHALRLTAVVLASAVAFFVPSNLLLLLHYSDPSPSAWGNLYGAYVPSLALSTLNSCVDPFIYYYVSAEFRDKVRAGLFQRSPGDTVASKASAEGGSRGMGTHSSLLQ
The assay can be described thus: PAR4 FLIPR assay (antagonism of agonist peptide-induced calcium mobilization). It is filed as cell-based. The method in brief:
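Antagonism was taken as block of calcium mobilization evoked by the agonist peptide H-Ala-Phe(4-F)-Pro-Gly-Trp-Leu-Val-Lys-Asn-[…]-NH2, added after 30 min room-temperature compound preincubation in dye-loaded PAR4-transfected HEK293 cells (endogenous PAR1). Fluorescence was read on FDSS, with compound addition alone used as the agonist counter-screen; values come from 11-point concentration-response curves.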
Regarding `COc1cnc2c(-c3nc4cc(F)c5c(c4s3)C[C@H](COC(=O)Nc3cncc(C(N)=O)c3)O5)cc(C)cc2n1` [Example 205, (R)-(5-fluoro-2-(2-methoxy-7-methylquinoxalin-5-yl)-7,8-dihydrobenzofuro[5,4-d]thiazo 1-7-yl)methyl (5-carbamoylpyridin-3-yl)carbamate], the IC50 was found to be 1.3 nM.
Take `COc1cnc2c(-c3nc4cc(F)c5c(c4s3)C[C@H](COC(=O)Nc3ccc(-c4ncco4)cc3)O5)cc(C)cc2n1` [Example 207, (R)-(5-fluoro-2-(2-methoxy-7-methylquinoxalin-5-yl)-7,8-dihydrobenzofuro[5,4-d]thiazo 1-7-yl)methyl (4-(oxazol-2-yl)phenyl)carbamate]: the IC50 was found to be 2.2 nM.
`CNC(=O)c1ccc(NC(=O)OC[C@H]2Cc3c(c(F)cc4nc(-c5cc(C)cc6nc(OC)cnc56)sc34)O2)cc1` [Example 208, (R)-(5-fluoro-2-(2-methoxy-7-methylquinoxalin-5-yl)-7,8-dihydrobenzofuro[5,4-d]thiazo 1-7-yl)methyl (4-(methylcarbamoyl)phenyl)carbamate]: the IC50 came out at 1.1 nM.
As to `COc1cnc2c(-c3nc4cc(F)c5c(c4s3)C[C@@H](CNC(C)=O)O5)cc(C)cc2n1` [Example 209, (S)-N-((5-fluoro-2-(2-methoxy-7-methylquinoxalin-5-yl)-7,8-dihydrobenzofuro[5,4-d]thiazol-7-yl)methyl)acetamide], the half-inhibitory concentration (IC50) was 26 nM.
For `COC(=O)NC[C@@H]1Cc2c(c(F)cc3nc(-c4cc(C)cc5nc(OC)cnc45)sc23)O1` [Example 210, (S)-methyl ((5-fluoro-2-(2-methoxy-7-methylquinoxalin-5-yl)-7,8-dihydrobenzofuro[5,4-d]thiazol-7-yl)methyl)carbamate], the IC50 worked out at 2.9 nM.
For the molecule `COc1cnc2c(-c3nc4cc(F)c5c(c4s3)C[C@@H](CNC(=O)OCc3ccccc3)O5)cc(C)cc2n1` [Example 211, (S)-benzyl ((5-fluoro-2-(2-methoxy-7-methylquinoxalin-5-yl)-7,8-dihydrobenzofuro[5,4-d]thiazol-7-yl)methyl)carbamate], the IC50 amounted to 1.3 nM.
As to `COc1cnc2c(-c3nc4cc(F)c5c(c4s3)C[C@@H](CNC(=O)Oc3ccccc3)O5)cc(C)cc2n1` [Example 212, (S)-phenyl ((5-fluoro-2-(2-methoxy-7-methylquinoxalin-5-yl)-7,8-dihydrobenzofuro[5,4-d]thiazol-7-yl)methyl)carbamate], the IC50 stood at 2.1 nM.
For the molecule `COc1cnc2c(-c3nc4cc(F)c5c(c4s3)C[C@@H](CNC(=O)Oc3ccc(C)cc3)O5)cc(C)cc2n1` [Example 213, (S)-p-tolyl ((5-fluoro-2-(2-methoxy-7-methylquinoxalin-5-yl)-7,8-dihydrobenzofuro[5,4-d]thiazol-7-yl)methyl)carbamate], the IC50 was 3.6 nM.
Regarding `COc1cnc2c(-c3nc4cc(F)c5c(c4s3)C[C@@H](CNC(=O)Oc3ccc(Cl)cc3)O5)cc(C)cc2n1` [Example 214, (S)-4-chlorophenyl ((5-fluoro-2-(2-methoxy-7-methylquinoxalin-5-yl)-7,8-dihydrobenzofuro[5,4-d]thiazol-7-yl)methyl)carbamate], the IC50 came out at 26 nM.
With `COc1cnc2c(-c3nc4cc(F)c5c(c4s3)C[C@@H](CNC(=O)C(F)(F)F)O5)cc(C)cc2n1` [Example 215, (S)-2,2,2-trifluoro-N-((5-fluoro-2-(2-methoxy-7-methylquinoxalin-5-yl)-7,8-dihydrobenzofuro[5,4-d]thiazol-7-yl)methyl)acetamide], the IC50 amounted to 2.3 nM.
As for `COc1ccc(OC(=O)NC[C@@H]2Cc3c(c(F)cc4nc(-c5cc(C)cc6nc(OC)cnc56)sc34)O2)cc1` [Example 216, (S)-4-methoxyphenyl ((5-fluoro-2-(2-methoxy-7-methylquinoxalin-5-yl)-7,8-dihydrobenzofuro[5,4-d]thiazol-7-yl)methyl)carbamate], the IC50 turned out to be 2.1 nM.

Usually IC50 stands for the concentration that inhibits the measured activity by half.

Values taken from patent US11932658B2 (BRISTOL-MYERS SQUIBB COMPANY, priority 2016, dated 2024).
